In patent publication US10766893B2 (priority 2017, dated 2020):

Columns and labels:
Assay in all cases: biochemical
Type in all cases: biochemical
Conditions in all cases: 15 nM tritium labelled cAMP, 1 hr at room temperature
PDE1A = PDE1A (Homo sapiens (Human), UniProt P54750)
Description: (§1) Table 1 lists the IC50 value for inhibition of PDE1 by the compounds of the invention. […] PDE1 assays are described in the Experimental Section.

PDE1B = PDE1B (Homo sapiens (Human), UniProt Q01064)
Description: as §1

PDE1C = PDE1C (Homo sapiens (Human), UniProt Q14123)
PDE1C, sequence (Q14123 whole entry): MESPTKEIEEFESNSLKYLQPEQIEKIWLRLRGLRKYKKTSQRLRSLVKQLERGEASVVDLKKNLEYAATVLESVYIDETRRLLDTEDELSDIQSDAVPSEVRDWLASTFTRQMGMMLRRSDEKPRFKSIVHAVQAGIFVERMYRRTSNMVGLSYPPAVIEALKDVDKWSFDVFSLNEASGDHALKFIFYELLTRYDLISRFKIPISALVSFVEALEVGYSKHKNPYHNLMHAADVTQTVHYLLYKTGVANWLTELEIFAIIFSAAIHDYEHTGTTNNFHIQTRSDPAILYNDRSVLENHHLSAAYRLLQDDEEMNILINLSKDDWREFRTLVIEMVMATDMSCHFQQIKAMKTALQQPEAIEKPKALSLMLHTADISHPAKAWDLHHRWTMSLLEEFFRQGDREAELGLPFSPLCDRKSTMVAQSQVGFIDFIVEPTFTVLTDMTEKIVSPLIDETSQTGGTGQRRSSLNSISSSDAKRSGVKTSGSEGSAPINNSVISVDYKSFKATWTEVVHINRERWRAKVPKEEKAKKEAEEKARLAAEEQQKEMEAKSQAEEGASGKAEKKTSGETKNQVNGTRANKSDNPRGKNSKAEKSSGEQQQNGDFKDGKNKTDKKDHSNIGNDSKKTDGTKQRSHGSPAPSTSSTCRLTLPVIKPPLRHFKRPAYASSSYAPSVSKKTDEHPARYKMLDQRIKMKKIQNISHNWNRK
Description: as §1

PDE1B, sequence (Q01064 whole entry): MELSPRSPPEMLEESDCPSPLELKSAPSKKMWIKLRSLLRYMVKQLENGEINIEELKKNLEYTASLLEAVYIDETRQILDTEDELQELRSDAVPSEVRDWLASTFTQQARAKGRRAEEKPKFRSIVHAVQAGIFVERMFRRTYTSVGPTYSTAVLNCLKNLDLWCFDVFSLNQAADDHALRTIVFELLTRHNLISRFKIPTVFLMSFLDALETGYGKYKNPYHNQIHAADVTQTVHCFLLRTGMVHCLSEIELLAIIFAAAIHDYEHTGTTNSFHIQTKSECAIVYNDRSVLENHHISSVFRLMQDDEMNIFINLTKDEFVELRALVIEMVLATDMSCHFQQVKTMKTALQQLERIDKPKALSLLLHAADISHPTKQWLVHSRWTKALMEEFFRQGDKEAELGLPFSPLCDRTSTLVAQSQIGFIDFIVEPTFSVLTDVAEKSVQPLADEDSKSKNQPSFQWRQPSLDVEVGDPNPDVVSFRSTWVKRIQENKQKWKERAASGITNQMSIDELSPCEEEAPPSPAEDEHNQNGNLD
PDE1A, sequence (P54750 whole entry): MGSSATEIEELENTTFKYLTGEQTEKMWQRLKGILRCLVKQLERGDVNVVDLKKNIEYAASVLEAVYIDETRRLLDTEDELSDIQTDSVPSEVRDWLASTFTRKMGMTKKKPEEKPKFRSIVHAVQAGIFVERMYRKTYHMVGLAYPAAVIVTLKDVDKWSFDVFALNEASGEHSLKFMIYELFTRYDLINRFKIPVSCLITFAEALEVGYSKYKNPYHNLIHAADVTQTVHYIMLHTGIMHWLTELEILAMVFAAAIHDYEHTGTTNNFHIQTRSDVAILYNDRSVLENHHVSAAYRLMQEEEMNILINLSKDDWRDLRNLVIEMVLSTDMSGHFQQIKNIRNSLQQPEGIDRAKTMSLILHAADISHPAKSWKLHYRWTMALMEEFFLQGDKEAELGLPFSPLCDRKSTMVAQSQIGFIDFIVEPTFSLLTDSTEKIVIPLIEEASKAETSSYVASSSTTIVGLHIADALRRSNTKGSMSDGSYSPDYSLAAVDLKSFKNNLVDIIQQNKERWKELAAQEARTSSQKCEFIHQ

SMILES | IC50 (PDE1A) [nM] | IC50 (PDE1B) [nM] | IC50 (PDE1C) [nM]
CCOc1cnccc1-c1cc(NCc2cccnc2OC)c2c(n1)c(C)nn2C(C)C [Example 30b, 5-(3-ethoxy-4-pyridyl)-1-isopropyl-N-[(2-methoxy-3-pyridyl)methyl]-3-methyl-pyrazolo[4,3-b]pyridin-7-amine] | 27 | 2.7 | 65
CCOc1cnccc1-c1cc(NCc2cccc(F)n2)c2c(n1)c(C)nn2C(C)C [Example 12b, 5-(3-ethoxy-4-pyridyl)-N-[(6-fluoro-2-pyridyl)methyl]-1-isopropyl-3-methyl-pyrazolo[4,3-b]pyridin-7-amine] | 22 | 1.1 | 61
CCOc1ncccc1-c1cc(NCc2cccn3nccc23)c2c(n1)c(C)nn2C(C)C [Example 5a, 5-(2-ethoxy-3-pyridyl)-1-isopropyl-3-methyl-N-(pyrazolo[1,5-a]pyridin-4-ylmethyl)pyrazolo[4,3-b]pyridin-7-amine] | 53 | 7.1 | 95
CCCOc1nnccc1-c1cc(NCc2cnn(C)c2)c2c(n1)c(C)nn2C(C)C [Example 4b, 1-isopropyl-3-methyl-N-[(1-methylpyrazol-4-yl)methyl]-5-(3-propoxypyridazin-4-yl)pyrazolo[4,3-b]pyridin-7-amine] | 3.2 | 0.35 | 18
CCOc1cnccc1-c1cc(NCc2cccnc2F)c2c(n1)c(C)nn2C(C)C [Example 17b, 5-(3-ethoxy-4-pyridyl)-N-[(2-fluoro-3-pyridyl)methyl]-1-isopropyl-3-methyl-pyrazolo[4,3-b]pyridin-7-amine] | 20 | 2.4 | 37
CCOc1ncccc1-c1cc(NCc2cccn3cnnc23)c2c(n1)c(C)nn2C(C)C [Example 3a, 5-(2-ethoxy-3-pyridyl)-1-isopropyl-3-methyl-N-([1,2,4]triazolo[4,3-c]pyridin-8-ylmethyl)pyrazolo[4,3-b]pyridin-7-amine] | 4.7 | 0.32 | –
CCOc1nnccc1-c1cc(NCc2cccc(OC)n2)c2c(n1)c(C)nn2C(C)C [Example 24b, 5-(3-ethoxypyridazin-4-yl)-1-isopropyl-N-[(6-methoxy-2-pyridyl)methyl]-3-methyl-pyrazolo[4,3-b]pyridin-7-amine] | – | 1.4 | 71
CCOc1nnccc1-c1cc(NCc2ncccn2)c2c(n1)c(C)nn2C(C)C [Example 1b, 5-(3-ethoxypyridazin-4-yl)-1-isopropyl-3-methyl-N-(pyrimidin-2-ylmethyl)pyrazolo[4,3-b]pyridin-7-amine] | 11 | 1.3 | 48
CCOc1cnccc1-c1cc(NCc2cnn(C)c2)c2c(n1)c(C)nn2C(C)C [Example 28b, 5-(3-ethoxy-4-pyridyl)-1-isopropyl-3-methyl-N-[(1-methylpyrazol-4-yl)methyl]pyrazolo[4,3-b]pyridin-7-amine] | – | 2.1 | 33
CCOc1ncccc1-c1cc(NCc2cccn3cncc23)c2c(n1)c(C)nn2C(C)C [Example 8a, 5-(2-ethoxy-3-pyridyl)-N-(imidazo[1,5-a]pyridin-8-ylmethyl)-1-isopropyl-3-methyl-pyrazolo[4,3-b]pyridin-7-amine] | 3.2 | 0.18 | 9.1
CCOc1cnccc1-c1cc(NCc2ccn(C)n2)c2c(n1)c(C)nn2C(C)C [Example 27b, 5-(3-ethoxy-4-pyridyl)-1-isopropyl-3-methyl-N-[(1-methylpyrazol-3-yl)methyl]pyrazolo[4,3-b]pyridin-7-amine] | 17 | 1.6 | 42
CCOc1nnccc1-c1cc(NCc2ncc(F)cn2)c2c(n1)c(C)nn2C(C)C [Example 10b, 5-(3-ethoxypyridazin-4-yl)-N-[(5-fluoropyrimidin-2-yl)methyl]-1-isopropyl-3-methyl-pyrazolo[4,3-b]pyridin-7-amine] | 21 | 2.4 | 67
CCOc1cnccc1-c1cc(NCc2cnc(C)s2)c2c(n1)c(C)nn2C(C)C [Example 21b, 5-(3-ethoxy-4-pyridyl)-1-isopropyl-3-methyl-N-[(2-methylthiazol-5-yl)methyl]pyrazolo[4,3-b]pyridin-7-amine] | 5.6 | 0.64 | 14
CCOc1nnccc1-c1cc(NCc2cc(C)[nH]n2)c2c(n1)c(C)nn2C(C)C [Example 22b, 5-(3-ethoxypyridazin-4-yl)-1-isopropyl-3-methyl-N-[(5-methyl-1H-pyrazol-3-yl)methyl]pyrazolo[4,3-b]pyridin-7-amine] | – | 0.4 | 15
CCOc1nnccc1-c1cc(NCc2ccn(C)n2)c2c(n1)c(C)nn2C(C)C [Example 9b, 5-(3-ethoxypyridazin-4-yl)-1-isopropyl-3-methyl-N-[(1-methylpyrazol-3-yl)methyl]pyrazolo[4,3-b]pyridin-7-amine] | 5.2 | 0.6 | 22
CCOc1cnccc1-c1cc(NCc2cnn(C)c2)c2c(n1)c(C)nn2C(C)CC (single isomer, unassigned) [Example 32b, 5-(3-ethoxy-4-pyridyl)-3-methyl-N-[(1-methylpyrazol-4-yl)methyl]-1-[1-methylpropyl]pyrazolo[4,3-b]pyridin-7-amine] | 57 | 7.8 | 180
Cc1nn(C(C)C)c2c(NCc3cnn(C)c3)cc(-c3cccc4ncoc34)nc12 [Example 37b, 5-(1,3-benzoxazol-7-yl)-1-isopropyl-3-methyl-N-[(1-methylpyrazol-4-yl)methyl]pyrazolo[4,3-b]pyridin-7-amine] | 16 | 2.4 | 14
CCOc1ncccc1-c1cc(NCc2cccc3nsnc23)c2c(n1)c(C)nn2C(C)C [Example 2a, N-(2,1,3-benzothiadiazol-4-ylmethyl)-5-(2-ethoxy-3-pyridyl)-1-isopropyl-3-methyl-pyrazolo[4,3-b]pyridin-7-amine] | 53 | 3.4 | 140
CCOc1nnccc1-c1cc(NCc2cccc(F)n2)c2c(n1)c(C)nn2C(C)C [Example 26b, 5-(3-ethoxypyridazin-4-yl)-N-[(6-fluoro-2-pyridyl)methyl]-1-isopropyl-3-methyl-pyrazolo[4,3-b]pyridin-7-amine] | 6.5 | – | 44
COc1nnccc1-c1cc(NCc2cnn(C)c2)c2c(n1)c(C)nn2C(C)C [Example 2b, 1-isopropyl-5-(3-methoxypyridazin-4-yl)-3-methyl-N-[(1-methylpyrazol-4-yl)methyl]pyrazolo[4,3-b]pyridin-7-amine] | 45 | 8.1 | 49
CCOc1cnccc1-c1cc(NCc2cc(C)[nH]n2)c2c(n1)c(C)nn2C(C)C [Example 23b, 5-(3-ethoxy-4-pyridyl)-1-isopropyl-3-methyl-N-[(5-methyl-1H-pyrazol-3-yl)methyl]pyrazolo[4,3-b]pyridin-7-amine] | 5.5 | 0.55 | 12
CCOc1nnccc1-c1cc(NCc2cnn(C)c2)c2c(n1)c(C)nn2C(C)C [Example 3b, 5-(3-ethoxypyridazin-4-yl)-1-isopropyl-3-methyl-N-[(1-methylpyrazol-4-yl)methyl]pyrazolo[4,3-b]pyridin-7-amine] | 6.1 | 1.1 | 27
CCOc1nnccc1-c1cc(NCc2ncn(C)n2)c2c(n1)c(C)nn2C(C)C [Example 18b, 5-(3-ethoxypyridazin-4-yl)-1-isopropyl-3-methyl-N-[(1-methyl-1,2,4-triazol-3-yl)methyl]pyrazolo[4,3-b]pyridin-7-amine] | 3.6 | 0.59 | 17
CCOc1ncccc1-c1cc(NCc2cccn3ccnc23)c2c(n1)c(C)nn2C(C)C [Example 4a, 5-(2-ethoxy-3-pyridyl)-N-(imidazo[1,2-a]pyridin-8-ylmethyl)-1-isopropyl-3-methyl-pyrazolo[4,3-b]pyridin-7-amine] | 6.6 | 0.48 | 22
Cc1nn(C(C)C)c2c(NCc3cnn(C)c3)cc(-c3cccc4cc[nH]c34)nc12 [Example 38b, 5-(1H-indol-7-yl)-1-isopropyl-3-methyl-N-[(1-methylpyrazol-4-yl)methyl]pyrazolo[4,3-b]pyridin-7-amine] | 590 | 100 | 350
CCOc1nnccc1-c1cc(NCc2cccc3oc(C)nc23)c2c(n1)c(C)nn2C(C)C [Example 14a, 5-(3-ethoxypyridazin-4-yl)-1-isopropyl-3-methyl-N-[(2-methyl-1,3-benzoxazol-4-yl)methyl]pyrazolo[4,3-b]pyridin-7-amine] | 9.3 | 0.21 | –
CCOc1nnccc1-c1cc(NCc2nccc(C)n2)c2c(n1)c(C)nn2C(C)C [Example 11b, 5-(3-ethoxypyridazin-4-yl)-1-isopropyl-3-methyl-N-[(4-methylpyrimidin-2-yl)methyl]pyrazolo[4,3-b]pyridin-7-amine] | 38 | 4.4 | 160
CCOc1nnccc1-c1cc(NCc2ccccn2)c2c(n1)c(C)nn2C(C)C [Example 14b, 5-(3-ethoxypyridazin-4-yl)-1-isopropyl-3-methyl-N-(2-pyridylmethyl)pyrazolo[4,3-b]pyridin-7-amine] | – | 1.1 | 53
Cc1nc2c(-c3cc(NCc4cnn(C)c4)c4c(n3)c(C)nn4C(C)C)cccc2o1 [Example 35b, 1-isopropyl-3-methyl-5-(2-methyl-1,3-benzoxazol-4-yl)-N-[(1-methylpyrazol-4-yl)methyl]pyrazolo[4,3-b]pyridin-7-amine] | 39 | – | 43
CCOc1nnccc1-c1cc(NCc2cccnc2OC)c2c(n1)c(C)nn2C(C)C [Example 7b, 5-(3-ethoxypyridazin-4-yl)-1-isopropyl-N-[(2-methoxy-3-pyridyl)methyl]-3-methyl-pyrazolo[4,3-b]pyridin-7-amine] | 11 | 1.7 | –
